Source: patent US20260373248A1, “DEGRADABLE PEPTOIDS” (Medici Therapeutics, Inc., priority 2023, published 2026)
Non-standard residues stand in square brackets, D forms with d. Residues, ends and D or L forms follow the SMILES beside them. *: point of attachment. Gly(N-(3-decanoyloxypropyl)) = CCCCCCCCCC(=O)OCCCNCC(=O)O; N(3-lauroyloxypropyl)Gly = CCCCCCCCCCCC(=O)OCCCNCC(=O)O; Gly(N-3-morpholinopropyl) = O=C(O)CNCCCN1CCOCC1; N(2-ethylhexyl)Gly = CCCCC(CC)CNCC(=O)O; N(CH(CH2OH)2)Gly = O=C(O)CNC(CO)CO; NDecylGly = CCCCCCCCCCNCC(=O)O; For = O=C*

Key:
mRNA = mRNA encapsulation (modified Quant-iT RiboGreen assay); type: physicochemical; conditions: for mean percent encapsulation of RNA: RiboGreen, without vs with Triton X-100; for % Encapsulation: mRNA
Procedure, shortened: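 Encapsulated fraction was calculated by comparing RiboGreen signal (excitation 485 nm, emission 530 nm) of intact particles with that of particles lysed by a 10-min Triton X-100 treatment. Total mRNA concentration was taken from the lysed samples.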

[1] = Peptoid quantity remaining in liver by HPLC-TOF mass spectrometry; type: in vivo; conditions: liver homogenate
Procedure, shortened: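 Whole liver weighed; 20 mg tissue bead-homogenized in IPA/MeOH (8/2) with internal standard, centrifuged, supernatant run on BEH C8 HPLC-TOF MS. Peptoid concentration derived from linear calibration curve (0.2-50 μg/g) prepared in spiked untreated liver.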

[2] = Delivery vehicle size and polydispersity by dynamic light scattering; type: physicochemical
Procedure, shortened: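 Dynamic light scattering in PBS gave size and polydispersity of peptoid LNPs. These were dialyzed overnight at 4 °C into tris-sucrose buffer pH 7.4 after microfluidic 1:3 volume mixing of mRNA in pH 5.0 citrate with ethanol lipids (peptoid:DSPC:cholesterol:DMG-PEG2000 20:1.79:7.16:1.84 w/w).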

hEPO = test: Quantification of hEPO in serum after IV injection of mRNA (Human EPO ELISA); type: in vivo; conditions: Balb/c mice, 2.5 μg mRNA IV, serum after 6 hours
Procedure, shortened: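 Balb/c mice received 2.5 μg mRNA encoding human EPO by IV injection; serum was collected after 6 hours. hEPO was measured by sandwich ELISA (biotin-conjugate, streptavidin-HRP, TMB, A450) against kit standards (mIU/mL) and an external standard (ng/mL), with values interpolated and corrected for dilution.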

firefly luciferase = test: In vivo firefly luciferase expression after intravenous injection of fLuc mRNA delivery vehicles (IVIS imaging); parameters: species or system female Balb/c mice; conditions: for Total Flux: mice, 2.5 ug fLuc mRNA intravenously, 6 hours post-injection; for Total Flux (luciferase expression): fLuc mRNA, intravenous, Balb/c mice
Procedure, shortened: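 Read-out is total photon flux per region of interest, from whole-body IVIS images taken 10 minutes after IP D-luciferin (30 mg/mL, 10 μL/g) and from excised organs. Female Balb/c mice aged 6-8 weeks received 2.5 ug fLuc mRNA Nutshells intravenously 6 hours before imaging.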

luciferase = test: Luciferase expression after local (intramuscular or subcutaneous) administration of mRNA; type: in vivo; conditions: mRNA 0.01 mpk, 6 hours; for IM Flux: intramuscular; for SC Flux: subcutaneous
Procedure, shortened: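 Bioluminescence read 6 hours after fLuc mRNA dosing (peptoid Nutshells; 0.01 mpk S.C. or I.M., 0.1 mpk intratumoral) in female Balb/c mice aged 6-8 weeks. D-luciferin injected IP, whole-body imaging after 10 minutes, then organ imaging; total photon flux per region of interest.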

[3] = DLS in PBS, peptoid:DSPC:Cholesterol:DMG-PEG2000 weight ratio 20:1.79:7.16:1.84, mRNA

| SMILES | mean percent encapsulation of RNA (mRNA) | % of injected dose remaining in liver [1] | PDI [2, 3] | Particle Size [2, 3] | hEPO (hEPO) | Total Flux (firefly luciferase) | IM Flux (luciferase) | SC Flux (luciferase) | % Encapsulation (mRNA; formulation recipe D22) | % Encapsulation (mRNA; formulation recipe O1) | % Encapsulation (mRNA; formulation recipe O5) | Particle Size ([2]; formulation recipe D22) | Particle Size ([2]; formulation recipe O1) | Particle Size ([2]; formulation recipe O5) | Total Flux (luciferase expression) (firefly luciferase; formulation recipe D22) | Total Flux (luciferase expression) (firefly luciferase; formulation recipe O1) | Total Flux (luciferase expression) (firefly luciferase; formulation recipe O5) | % Encapsulation (mRNA; formulation recipe O8) | Particle Size ([2]; formulation recipe O8) | Total Flux (luciferase expression) (firefly luciferase; formulation recipe O8) |
| --- | --- | --- | --- | --- | --- | --- | --- | --- | --- | --- | --- | --- | --- | --- | --- | --- | --- | --- | --- | --- |
| CCCCCCCCCCCC(=O)OCCCN(CC(N)=O)C(=O)CN(CC(CC)CCCC)C(=O)CN(CCCCCCCCCC)C(=O)CN(CC(CC)CCCC)C(=O)CN(CCCOC(=O)CCCCCCCCCCC)C(=O)CN(CC(CC)CCCC)C(=O)CNC(CO)CO (centres unmarked) [Compound 59] (H-[N(CH(CH2OH)2)Gly][N(2-ethylhexyl)Gly][N(3-lauroyloxypropyl)Gly][N(2-ethylhexyl)Gly][NDecylGly][N(2-ethylhexyl)Gly][N(3-lauroyloxypropyl)Gly]-NH2) | 95.2% | −1.85% | 0.106 | 79.5 nm | 112 ng/mL | 6.47E+08 p/s | 6.35E+07 p/s | 8.71E+08 p/s |  |  |  |  |  |  |  |  |  |  |  |  |
| CCCCCCCCCCCC(=O)OCCCN(CC(=O)N(CC(=O)N(CCCN1CCOCC1)CC(=O)N(CC(=O)N(CCCOC(=O)CCCCCCCCCCC)CC(=O)N(CC(N)=O)CC(CC)CCCC)CC(CC)CCCC)CC(CC)CCCC)C(=O)CN(C=O)CC(CC)CCCC (centres unmarked) [Compound 80] (For-[N(2-ethylhexyl)Gly][N(3-lauroyloxypropyl)Gly][N(2-ethylhexyl)Gly][Gly(N-3-morpholinopropyl)][N(2-ethylhexyl)Gly][N(3-lauroyloxypropyl)Gly][N(2-ethylhexyl)Gly]-NH2) | 65.7% | 13.58% | 0.109 | 78.1 nm | 481 ng/mL | 3.74E+09 p/s | 2.20E+08 p/s | 4.16E+08 p/s | 65.7% | 80.5% | 82.6% | 78.1 nm | 68.2 nm | 68.5 nm | 3.74E+09 p/s | 2.74E+09 p/s | 2.71E+09 p/s |  |  |  |
| CCCCCCCCCC(=O)OCCCN(CC(N)=O)C(=O)CN(CCCOC(=O)CCCCCCCCC)C(=O)CN(CC(CC)CCCC)C(=O)CN(CCCOC(=O)CCCCCCCCC)C(=O)CN(CCCOC(=O)CCCCCCCCC)C(=O)CN(CC(CC)CCCC)C(=O)CNC(CO)CO (centres unmarked) [Compound 102] (H-[N(CH(CH2OH)2)Gly][N(2-ethylhexyl)Gly][Gly(N-(3-decanoyloxypropyl))][Gly(N-(3-decanoyloxypropyl))][N(2-ethylhexyl)Gly][Gly(N-(3-decanoyloxypropyl))][Gly(N-(3-decanoyloxypropyl))]-NH2) | 47.1% | 0.86% | 0.123 | 97.8 nm | 207 ng/mL | 1.90E+09 p/s | 2.12E+08 p/s | 1.76E+08 p/s |  |  |  |  |  |  |  |  |  |  |  |  |
| CCCCCCCCCCN(CC(=O)N(CC(=O)N(CCCOC(=O)CCCCCCCCC)CC(N)=O)CC(CC)CCCC)C(=O)CN(CC(CC)CCCC)C(=O)CN(CCCOC(=O)CCCCCCCCC)C(=O)CN(CC(CC)CCCC)C(=O)CNC(CO)CO (centres unmarked) [Compound 58] (H-[N(CH(CH2OH)2)Gly][N(2-ethylhexyl)Gly][Gly(N-(3-decanoyloxypropyl))][N(2-ethylhexyl)Gly][NDecylGly][N(2-ethylhexyl)Gly][Gly(N-(3-decanoyloxypropyl))]-NH2) | 78.1% | −1.37% | 0.159 | 70.4 nm | 386 ng/mL | 3.94E+09 p/s | 5.53E+08 p/s | 1.99E+07 p/s | 78.1% |  | 92.8% | 70.4 nm |  | 56.3 nm | 3.94E+09 p/s |  | 5.84E+08 p/s | 92.9% | 57.5 nm | 1.02E+09 p/s |
